In paper PMC3914206:

Columns and labels:
Type in all cases: binding
Conditions in all cases: Compound Concentration 10 µM
panel of 442 kinases [1] = biological target: T1, panel of 442 kinases (Homo sapiens, UniProt Q9P286)
T1 construct: purchased KINOMEscan
Description: (§1) We assessed the selectivity of members of this scaffold using the KINOMEscan methodology across a near comprehensive panel of 442 kinases [[18,27]].

panel of 442 kinases [2] = biological target: T2, panel of 442 kinases (Homo sapiens, UniProt P57058)
T2 construct: purchased KINOMEscan
T2 sequence (P57058 1-714): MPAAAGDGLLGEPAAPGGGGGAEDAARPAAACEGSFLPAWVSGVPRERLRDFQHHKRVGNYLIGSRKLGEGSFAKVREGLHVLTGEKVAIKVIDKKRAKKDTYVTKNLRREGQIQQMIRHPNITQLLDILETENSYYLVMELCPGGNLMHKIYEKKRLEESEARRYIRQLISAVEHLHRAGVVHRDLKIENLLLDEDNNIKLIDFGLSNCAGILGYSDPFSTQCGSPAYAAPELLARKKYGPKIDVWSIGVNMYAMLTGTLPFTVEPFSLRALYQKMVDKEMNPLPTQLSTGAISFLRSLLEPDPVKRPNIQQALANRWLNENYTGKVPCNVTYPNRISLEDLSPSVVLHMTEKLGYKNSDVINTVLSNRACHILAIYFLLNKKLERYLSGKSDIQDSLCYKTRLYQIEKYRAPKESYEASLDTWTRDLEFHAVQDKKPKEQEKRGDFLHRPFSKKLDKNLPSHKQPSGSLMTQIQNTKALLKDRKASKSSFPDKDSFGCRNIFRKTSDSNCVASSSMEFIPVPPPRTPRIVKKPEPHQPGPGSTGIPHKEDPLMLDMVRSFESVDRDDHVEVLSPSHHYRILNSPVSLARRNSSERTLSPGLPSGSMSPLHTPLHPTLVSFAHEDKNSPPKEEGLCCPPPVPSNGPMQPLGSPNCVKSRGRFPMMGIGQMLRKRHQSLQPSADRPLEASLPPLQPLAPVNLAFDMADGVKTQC
Description: as §1

panel of 442 kinases [3] = biological target: T3, panel of 442 kinases (Homo sapiens, UniProt Q13131)
T3 construct: purchased KINOMEscan
T3 sequence (Q13131 whole entry): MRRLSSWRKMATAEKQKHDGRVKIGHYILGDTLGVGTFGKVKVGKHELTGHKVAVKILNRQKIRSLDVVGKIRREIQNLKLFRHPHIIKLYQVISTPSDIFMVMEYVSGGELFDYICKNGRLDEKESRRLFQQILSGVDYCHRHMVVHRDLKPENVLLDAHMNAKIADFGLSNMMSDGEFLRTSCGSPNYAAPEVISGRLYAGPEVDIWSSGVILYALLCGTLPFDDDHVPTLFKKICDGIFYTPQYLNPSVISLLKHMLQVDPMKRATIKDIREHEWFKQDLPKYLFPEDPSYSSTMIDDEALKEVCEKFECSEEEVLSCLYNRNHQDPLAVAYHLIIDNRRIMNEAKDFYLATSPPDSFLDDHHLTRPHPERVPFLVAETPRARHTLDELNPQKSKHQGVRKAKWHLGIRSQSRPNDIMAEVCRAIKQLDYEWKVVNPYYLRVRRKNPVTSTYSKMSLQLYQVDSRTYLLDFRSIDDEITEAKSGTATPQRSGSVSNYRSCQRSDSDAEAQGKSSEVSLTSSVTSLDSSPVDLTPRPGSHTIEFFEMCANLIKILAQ
Description: as §1

T1 sequence (Q9P286 whole entry): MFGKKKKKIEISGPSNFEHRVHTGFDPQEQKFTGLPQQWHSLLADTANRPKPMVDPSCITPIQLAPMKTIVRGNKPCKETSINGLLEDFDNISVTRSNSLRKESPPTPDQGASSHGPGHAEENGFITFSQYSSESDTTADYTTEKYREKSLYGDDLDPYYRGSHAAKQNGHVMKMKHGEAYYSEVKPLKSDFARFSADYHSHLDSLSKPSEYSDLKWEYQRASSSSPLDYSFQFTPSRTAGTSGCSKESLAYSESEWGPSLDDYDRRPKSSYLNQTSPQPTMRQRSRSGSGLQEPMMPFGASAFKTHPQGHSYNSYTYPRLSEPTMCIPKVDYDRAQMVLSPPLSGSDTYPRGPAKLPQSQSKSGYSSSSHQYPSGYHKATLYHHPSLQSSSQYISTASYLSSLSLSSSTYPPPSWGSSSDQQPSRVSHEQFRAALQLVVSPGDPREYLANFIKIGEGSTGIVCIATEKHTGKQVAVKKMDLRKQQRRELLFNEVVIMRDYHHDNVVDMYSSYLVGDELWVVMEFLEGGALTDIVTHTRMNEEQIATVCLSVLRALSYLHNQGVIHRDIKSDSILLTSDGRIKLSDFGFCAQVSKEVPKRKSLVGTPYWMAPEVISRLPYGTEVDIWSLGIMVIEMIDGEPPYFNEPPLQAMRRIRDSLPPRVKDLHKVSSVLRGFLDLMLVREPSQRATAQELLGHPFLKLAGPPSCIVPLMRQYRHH

COc1cc(C(=O)N2CCC(N3CCN(C)CC3)CC2)ccc1Nc1ncc2c(n1)N(C)c1ccccc1C(=O)N2C [15 (LRRK2-IN-1)]
KINOMEscan: PAK7 (panel of 442 kinases [1]): 96 | KINOMEscan: HUNK (panel of 442 kinases [2]): 100 | KINOMEscan: AMPK-alpha1 (panel of 442 kinases [3]): 51

COc1cc(C(=O)N2CCC(N3CCN(C)CC3)CC2)ccc1Nc1ncc2c(n1)N(C1CCCC1)c1ccccc1C(=O)N2C [Compound 25, 11-cyclopentyl-2-((2-methoxy-4-(4-(4-methylpiperazin-1-yl)piperidine-1-carbonyl)phenyl)amino)-5-methyl-5H-benzo[e]pyrimido[5,4-b][1,4]diazepin-6(11H)-one]
KINOMEscan: PAK7 (panel of 442 kinases [1]): 100 | KINOMEscan: HUNK (panel of 442 kinases [2]): 100 | KINOMEscan: AMPK-alpha1 (panel of 442 kinases [3]): 48

CCOc1cc(C(=O)N2CCC(N3CCN(C)CC3)CC2)ccc1Nc1ncc2c(n1)N(C1CCCC1)c1ccccc1C(=O)N2C [Compound 26]
KINOMEscan: PAK7 (panel of 442 kinases [1]): 100 | KINOMEscan: HUNK (panel of 442 kinases [2]): 53 | KINOMEscan: AMPK-alpha1 (panel of 442 kinases [3]): 100
